Several values for one entry are separate records, joined by “and”; a condition that tells them apart may be missing. Identical values can stand only once. Like-named read-outs stand apart in the source and are kept apart here.
Experiments:
A549/ATCC = assay: NCI one-dose assay, A549/ATCC; format: cell-based; conditions: Homo sapiens, 10 µM single dose, 48 h incubation, read-out: cell growth inhibition % (GI %)
Experimental: (§1) All novel scaffolds 6a–j were carefully selected by the National Cancer Institute (NCI), Bethesda, USA, to elucidate their cytotoxic activity versus 60 human cancer cell lines at 10 µM as a single-dose concentration after a 48 h incubation period.
(§2) National Cancer Institution selected all the synthesized 6a–j (NCI), Bethesda, USA, for in vitro one-dose antitumor assay. The methodology protocol for the NCI anticancer screening was reported in detail elsewhere (http://www.dtp.nci.nih.gov). The anticancer assay was performed in full NCI 60 cell lines extracted from nine tumor cell lines, including leukemia, melanoma, lung, colon, CNS, ovarian, renal, prostate, and breast cancer cell lines.

MCF-7 = assay: NCI one-dose assay, MCF-7; format: cell-based, human; conditions: MCF-7, 10 µM single dose, 48 h incubation
Experimental: as §1, §2

MOLT-4 = assay: NCI one-dose assay, MOLT-4; format: cell-based; conditions: Homo sapiens; MOLT-4; 10 µM single dose, 48 h incubation; read-out: cell growth inhibition % (GI %)
Experimental: as §1, §2

LOX IMVI = assay: NCI one-dose assay, LOX IMVI; format: cell-based; conditions: Homo sapiens; LOX IMVI; 10 µM single dose, 48 h incubation; read-out: cell growth inhibition % (GI %)
Experimental: as §1, §2

SR = assay: NCI one-dose assay, SR; format: cell-based; conditions: Homo sapiens; SR; 10 µM single dose, 48 h incubation; read-out: cell growth inhibition % (GI %)
Experimental: as §1, §2

[1] = system: MCF-7 (human breast cancer); assay: Cytotoxicity versus MCF-7 cell line (MTT assay); conditions: MCF7, read-out: MCF-7 (IC50 ± SD, uM)
Experimental: IC50 values were recorded using the Boltzman sigmoidal concentration–response curve equation using the nonlinear regression fitting models by GraphPad, Prism version 5 (GraphPad Software Inc., La Jolla, CA). MTT assay for MCF-7 cell lines. Cell line cells were obtained from American Type Culture Collection. Cells were cultured using DMEM media (Invitrogen/Life Technologies) supplemented with 10% FBS (Hyclone), 10 ug/ml of insulin (Sigma), and 1% penicillin–streptomycin. All the other chemicals and reagents were purchased from Sigma or Invitrogen. Cells were seeded in plates (cells density 1.2–1.8 × 10,000 cells/well) in a volume of 100 μl full-growth medium + 100 μl of the tested scaffold per well in a 96-well plate for 24 h before the application of the MTT assay protocol as reported, supplementary information.

NCI-H23 = assay: NCI one-dose assay, NCI-H23; format: cell-based; conditions: Homo sapiens; NCI-H23; 10 µM single dose, 48 h incubation; read-out: cell growth inhibition % (GI %)
Experimental: as §1, §2

K-562 = assay: NCI one-dose assay, K-562; format: cell-based; conditions: Homo sapiens, K562; K-562; 10 µM single dose, 48 h incubation; read-out: cell growth inhibition % (GI %)
Experimental: as §1, §2

[2] = system: 60 human cancer cell lines; assay: NCI one-dose assay against sixty NCI cancer cell lines; format: cell-based
Experimental: as §1, §2

SK-MEL-5 = assay: NCI one-dose assay, SK-MEL-5; format: cell-based; conditions: Homo sapiens; SK-MEL-5; 10 µM single dose, 48 h incubation; read-out: cell growth inhibition % (GI %)
Experimental: as §1, §2

[3] = system: HOP-92 (non-small cell lung cancer cell line); assay: NCI one-dose assay, HOP-92; format: cell-based; conditions: Homo sapiens; HOP-92 (Non-Small Cell Lung Cancer), 10 uM single dose; read-out: Growth inhibition %
Experimental: as §1, §2

UO-31 = assay: NCI one-dose assay, UO-31; format: cell-based; conditions: Homo sapiens; UO-31; 10 µM single dose, 48 h incubation; read-out: cell growth inhibition % (GI %)
Experimental: as §1, §2

[4] = system: SNB-75 cells (CNS cancer cell line); assay: NCI one-dose assay, SNB-75; format: cell-based; conditions: Homo sapiens; SNB-75 (CNS Cancer), 10 uM single dose; read-out: Growth inhibition %
Experimental: as §1, §2

T-47D = assay: NCI one-dose assay, T-47D; format: cell-based; conditions: Homo sapiens, T47D; T-47D; 10 µM single dose, 48 h incubation; read-out: cell growth inhibition % (GI %)
Experimental: as §1, §2

O=C1Nc2cc(Cl)ccc2C1=Cc1ccc(OCC(=O)c2ccc(Br)cc2)cc1 [Compound 6g, 6-Chloro-3-{4-[2-(4-bromophenyl)-2-oxoethoxy]benzylidene}indolin-2-one]
inhibition at 10 µM (A549/ATCC): 49.9% | inhibition at 10 µM (MCF-7; Homo sapiens, MCF7, 48 h, read-out: cell growth inhibition % (GI %)): 70.3% | cell growth inhibition % (GI %) (MCF-7): 70.03% and 71.12% | inhibition at 10 µM (MOLT-4): 61.6% | inhibition at 10 µM (LOX IMVI): 45.8% | inhibition at 10 µM (SR): 59.7% | IC50 [1]: 25.4 ± 1.23 µM | inhibition at 10 µM (NCI-H23): 46.8% | inhibition at 10 µM (K-562): 58.3% | inhibition at 10 µM ([2]; 786-0 (Renal Cancer), 10 uM single dose, read-out: Growth inhibition %): 15.6% | inhibition at 10 µM ([2]; ACHN (Renal Cancer), 10 uM single dose, read-out: Growth inhibition %): 31.2% | inhibition at 10 µM ([2]; BT-549 (Breast Cancer), 10 uM single dose, read-out: Growth inhibition %): 44.3% | inhibition at 10 µM ([2]; CAKI-1 (Renal Cancer), 10 uM single dose, read-out: Growth inhibition %): 47.6% | inhibition at 10 µM ([2]; CCRF-CEM (Leukemia), 10 uM single dose, read-out: Growth inhibition %): 34.3% | inhibition at 10 µM ([2]; COLO 205 (Colon Cancer), 10 uM single dose, read-out: Growth inhibition %): 44.7% | inhibition at 10 µM ([2]; DU-145 (Prostate Cancer), 10 uM single dose, read-out: Growth inhibition %): 12.4% | inhibition at 10 µM ([2]; EKVX (Non-Small Cell Lung Cancer), 10 uM single dose, read-out: Growth inhibition %): 43.8% | inhibition at 10 µM ([2]; HCC-2998 (Colon Cancer), 10 uM single dose, read-out: Growth inhibition %): 17.5% | inhibition at 10 µM ([2]; HCT-15 (Colon Cancer), 10 uM single dose, read-out: Growth inhibition %): 46.9% | inhibition at 10 µM ([2]; HCT-116 (Colon Cancer), 10 uM single dose, read-out: Growth inhibition %): 42.1% | inhibition at 10 µM ([2]; HL-60(TB) (Leukemia), 10 uM single dose, read-out: Growth inhibition %): 53.8% | inhibition at 10 µM ([2]; HS 578T (Breast Cancer), 10 uM single dose, read-out: Growth inhibition %): 22.4% | inhibition at 10 µM ([2]; HT-29, HT29 (Colon Cancer), 10 uM single dose, read-out: Growth inhibition %): 16.1% | inhibition at 10 µM ([2]; IGROV-1, IGROV1 (Ovarian Cancer), 10 uM single dose, read-out: Growth inhibition %): 34.6% | inhibition at 10 µM ([2]; KM12 (Colon Cancer), 10 uM single dose, read-out: Growth inhibition %): 28.7% | inhibition at 10 µM ([2]; M14 (Melanoma), 10 uM single dose, read-out: Growth inhibition %): 31.1% | inhibition at 10 µM ([2]; MALME-3M (Melanoma), 10 uM single dose, read-out: Growth inhibition %): 12.9% | inhibition at 10 µM ([2]; MDA-MB-231, read-out: Growth inhibition %): 23.4% | inhibition at 10 µM ([2]; MDA-MB-435 (Melanoma), 10 uM single dose, read-out: Growth inhibition %): 24.8% | inhibition at 10 µM ([2]; MDA-MB-468 (Breast Cancer), 10 uM single dose, read-out: Growth inhibition %): 42.3% | inhibition at 10 µM ([2]; NCI-H226 (Non-Small Cell Lung Cancer), 10 uM single dose, read-out: Growth inhibition %): 37.9% | inhibition at 10 µM ([2]; NCI-H322M (Non-Small Cell Lung Cancer), 10 uM single dose, read-out: Growth inhibition %): 18.1% | inhibition at 10 µM ([2]; NCI-H460 (Non-Small Cell Lung Cancer), 10 uM single dose, read-out: Growth inhibition %): 41% | inhibition at 10 µM ([2]; NCI-H522 (Non-Small Cell Lung Cancer), 10 uM single dose, read-out: Growth inhibition %): 49.4% | inhibition at 10 µM ([2]; OVCAR-3 (Ovarian Cancer), 10 uM single dose, read-out: Growth inhibition %): 15.7% | inhibition at 10 µM ([2]; OVCAR-4 (Ovarian Cancer), 10 uM single dose, read-out: Growth inhibition %): 44.5% | inhibition at 10 µM ([2]; OVCAR-5 (Ovarian Cancer), 10 uM single dose, read-out: Growth inhibition %): 13.9% | inhibition at 10 µM ([2]; OVCAR-8 (Ovarian Cancer), 10 uM single dose, read-out: Growth inhibition %): 30.7% | inhibition at 10 µM ([2]; PC-3 (Prostate Cancer), 10 uM single dose, read-out: Growth inhibition %): 51.4% | inhibition at 10 µM ([2]; RPMI-8226 (Leukemia), 10 uM single dose, read-out: Growth inhibition %): 43.6% | inhibition at 10 µM ([2]; RXF 393 (Renal Cancer), 10 uM single dose, read-out: Growth inhibition %): 44.8% | inhibition at 10 µM ([2]; SF-268 (CNS Cancer), 10 uM single dose, read-out: Growth inhibition %): 22% | inhibition at 10 µM ([2]; SF-295 (CNS Cancer), 10 uM single dose, read-out: Growth inhibition %): 45.1% | inhibition at 10 µM ([2]; SF-539 (CNS Cancer), 10 uM single dose, read-out: Growth inhibition %): 30.6% | inhibition at 10 µM ([2]; SK-MEL-2 (Melanoma), 10 uM single dose, read-out: Growth inhibition %): 29.8% | inhibition at 10 µM ([2]; SK-MEL-28 (Melanoma), 10 uM single dose, read-out: Growth inhibition %): 19.4% | inhibition at 10 µM ([2]; SN12C (Renal Cancer), 10 uM single dose, read-out: Growth inhibition %): 45.2% | inhibition at 10 µM ([2]; SNB-19 (CNS Cancer), 10 uM single dose, read-out: Growth inhibition %): 18.5% | inhibition at 10 µM ([2]; SW-620 (Colon Cancer), 10 uM single dose, read-out: Growth inhibition %): 14.1% | inhibition at 10 µM ([2]; U-251, U251 (CNS Cancer), 10 uM single dose, read-out: Growth inhibition %): 25.8% | inhibition at 10 µM ([2]; UACC-62 (Melanoma), 10 uM single dose, read-out: Growth inhibition %): 42% | inhibition at 10 µM ([2]; UACC-257 (Melanoma), 10 uM single dose, read-out: Growth inhibition %): 27.1% | inhibition at 10 µM (SK-MEL-5): 61.2% | inhibition at 10 µM [3]: 30.8% | inhibition at 10 µM (UO-31): 59.4% | inhibition at 10 µM [4]: 31.1% | inhibition at 10 µM (T-47D): 55.2%

— PMC11070402, “New antiproliferative 3-substituted oxindoles inhibiting EGFR/VEGFR-2 and tubulin polymerization” (Molecular Diversity, 2023)
